What was measured:
[1] = biological target: EP2 (Homo sapiens, UniProt P43116); test: Competition radioligand binding, [3H]PGE2, HEK 293 cells expressing EP2; parameters: expressed in transfected cells; host or cells: HEK 293 (membranes or whole cells)
Description: Competition binding experiments were performed in a medium containing Hank's balanced salt solution, Hepes 20 mM, pH 7.3, membranes (˜60 μg protein) or 2×10^5 cells from HEK 293 cells stably expressing human EP2 receptors, [^3H]PGE2 (10 nM) and various concentrations of test compounds in a total volume of 300 μl. Reaction mixtures were incubated at 23° C. for 60 min, and were filtered over Whatman GF/B filters under vacuum. Filters were washed three times with 5 ml ice-cold buffer containing 50 mM Tris/HCl (pH 7.3). Non-specific binding was estimated in the presence of excess unlabeled PGE2 (10 μM). Binding data fitted to the binding model for a single class of binding sites, using nonlinear regression analysis. IC50 values thus obtained were converted to Ki using the equation of Ki=(IC50/(1+[L]/KD) where [L] represents PGE2 concentration (10 nM) and KD the dissociation constant for [^3H]PGE2 at human EP2 receptors (40 nM). […]
The cell homogenate was centrifuged at 19000 r.p.m. for 20 min at 4° C. using a Beckman Ti-60 rotor. The resultant pellet was resuspended in TME buffer to give a final 1 mg/ml protein concentration, as determined by Biorad assay. […]
[^3H-] […] 17-phenyl PGF2 ? and non-specific binding determined with 10^−5M of unlabeled PGE2, or 17-phenyl PGF2 ? , according to receptor subtype studied.

[2] = biological target: T1, EP4 receptors (Homo sapiens, UniProt P35408); test: Radioligand binding, [3H]PGE2, HEK-293 cells expressing EP4
T1 construct: expressed in transfected cells; host or cells: HEK-293 (plasma membrane fraction)
T1 sequence (P35408 whole entry): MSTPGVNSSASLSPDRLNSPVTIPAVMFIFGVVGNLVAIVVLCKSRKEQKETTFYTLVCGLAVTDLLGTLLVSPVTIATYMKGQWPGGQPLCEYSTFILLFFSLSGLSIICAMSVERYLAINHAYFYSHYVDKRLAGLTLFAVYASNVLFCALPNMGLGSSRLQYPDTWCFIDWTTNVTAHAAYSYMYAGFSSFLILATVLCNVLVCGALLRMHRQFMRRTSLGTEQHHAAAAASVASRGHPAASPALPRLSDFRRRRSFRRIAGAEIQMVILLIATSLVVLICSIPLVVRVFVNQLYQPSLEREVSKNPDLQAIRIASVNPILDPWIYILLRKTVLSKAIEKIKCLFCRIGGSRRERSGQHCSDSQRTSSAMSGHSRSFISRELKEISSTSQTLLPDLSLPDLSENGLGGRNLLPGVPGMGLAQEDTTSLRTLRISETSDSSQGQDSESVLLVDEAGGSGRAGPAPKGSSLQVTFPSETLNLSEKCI
Description: HEK-293 cells stably expressing the human or feline FP receptor, or EP1, EP2, or EP4 receptors were washed with TME buffer, scraped from the bottom of the flasks, and homogenized for 30 sec using a Brinkman PT 10/35 polytron. TME buffer was added to achieve a final 40 ml volume in the centrifuge tubes (the composition of TME is 100 mM TRIS base, 20 mM MgCl2, […]; 10N HCl is added to achieve a pH of 7.4).
The cell homogenate was centrifuged at 19000 r.p.m. for 20 min at 4° C. using a Beckman Ti-60 rotor. The resultant pellet was resuspended in TME buffer to give a final 1 mg/ml protein concentration, as determined by Biorad assay. Radioligand binding competition assays vs. [^3H-]17-phenyl PGF2 ? (5 nM) were performed in a 100 μl volume for 60 min. Binding reactions were started by adding plasma membrane fraction. The reaction was terminated by the addition of 4 ml ice-cold TRIS-HCl buffer and rapid filtration through glass fiber GF/B filters using a Brandel cell harvester. The filters were washed 3 times with ice-cold buffer and oven dried for one hour.
[^3H-] PGE2 (specific activity 180 Ci mmol) was used as the radioligand for EP receptors. [^3H] 17-phenyl PGF2 ? was employed for FP receptor binding studies. […] 17-phenyl PGF2 ? and non-specific binding determined with 10^−5M of unlabeled PGE2, or 17-phenyl PGF2 ? , according to receptor subtype studied.

[3] = biological target: T2, hDP/Gqs5 (Homo sapiens, UniProt Q13258); test: FLIPR calcium signal, HEK-293(EBNA) cells; type: cell-based
T2 construct: expressed in transfected cells; host or cells: HEK-293(EBNA)
T2 sequence (Q13258 1-359): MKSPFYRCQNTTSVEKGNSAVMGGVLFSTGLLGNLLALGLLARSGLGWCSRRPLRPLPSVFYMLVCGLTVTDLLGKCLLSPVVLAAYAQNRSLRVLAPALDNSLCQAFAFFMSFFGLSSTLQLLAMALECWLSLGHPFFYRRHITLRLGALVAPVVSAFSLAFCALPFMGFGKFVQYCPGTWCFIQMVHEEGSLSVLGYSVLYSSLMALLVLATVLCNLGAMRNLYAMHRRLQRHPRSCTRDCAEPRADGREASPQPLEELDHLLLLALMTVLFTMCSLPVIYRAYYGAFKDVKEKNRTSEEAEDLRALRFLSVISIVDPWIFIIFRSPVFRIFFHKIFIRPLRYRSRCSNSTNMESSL
Description: (§1) HEK-293(EBNA) cells, stably expressing one type or subtype of recombinant human prostaglandin receptors (prostaglandin receptors expressed: hDP/Gqs5; hEP1; hEP2/Gqs5; hEP3A/Gqi5; hEP4/Gqs5; hFP; hiP; hTP), were cultured in 100 mm culture dishes in high-glucose DMEM medium containing 10% fetal bovine serum, 2 mM l-glutamine, 250 ? g/ml geneticin (G418) and 200 ? g/ml hygromycin B as selection markers, and 100 units/ml penicillin G, 100 ? g/ml streptomycin and 0.25 ? g/ml amphotericin B.
(§2) Cells were seeded at a density of 5×10^4 cells per well in Biocoat® Poly-D-lysine-coated black-wall, clear-bottom 96-well plates (Becton-Dickinson) and allowed to attach overnight in an incubator at 37° C. Cells were then washed two times with HBSS-HEPES buffer (Hanks Balanced Salt Solution without bicarbonate and phenol red, 20 mM HEPES, pH 7.4) using a Denley Cellwash plate washer (Labsystems). After 45 minutes of dye-loading in the dark, using the calcium-sensitive dye Fluo-4 AM at a final concentration of 2 ? M, plates were washed four times with HBSS-HEPES buffer to remove excess dye leaving 100 ? l in each well. Plates were re-equilibrated to 37° C. for a few minutes.
(§3) Cells were excited with an Argon laser at 488 nm, and emission was measured through a 510-570 nm bandwidth emission filter (FLIPR™, Molecular Devices, Sunnyvale, Calif.). Drug solution was added in a 50 ? l volume to each well to give the desired final concentration. The peak increase in fluorescence intensity was recorded for each well. On each plate, four wells each served as negative (HBSS-HEPES buffer) and positive controls (standard agonists: BW245C (hDP); PGE2 (hEP1; hEP2/Gqs5; hEP3A/Gqi5; hEP4/Gqs5); PGF2 ? (hFP); carbacyclin (hIP); U-46619 (hTP), depending on receptor). The peak fluorescence change in each drug-containing well was then expressed relative to the controls.
(§4) Compounds were tested in a high-throughput (HTS) or concentration-response (CoRe) format. In the HTS format, forty-four compounds per plate were examined in duplicates at a concentration of 10^−5 M. To generate concentration-response curves, four compounds per plate were tested in duplicates in a concentration range between 10^−5 and 10^−11 M. The duplicate values were averaged. In either, HTS or CoRe format each compound was tested on at least 3 separate plates using cells from different passages to give an n≧3.

[4] = biological target: T3, hIP (Homo sapiens, UniProt P43119); test: FLIPR calcium signal, HEK-293(EBNA) cells; type: cell-based
T3 construct: expressed in transfected cells; host or cells: HEK-293(EBNA)
T3 sequence (P43119 whole entry): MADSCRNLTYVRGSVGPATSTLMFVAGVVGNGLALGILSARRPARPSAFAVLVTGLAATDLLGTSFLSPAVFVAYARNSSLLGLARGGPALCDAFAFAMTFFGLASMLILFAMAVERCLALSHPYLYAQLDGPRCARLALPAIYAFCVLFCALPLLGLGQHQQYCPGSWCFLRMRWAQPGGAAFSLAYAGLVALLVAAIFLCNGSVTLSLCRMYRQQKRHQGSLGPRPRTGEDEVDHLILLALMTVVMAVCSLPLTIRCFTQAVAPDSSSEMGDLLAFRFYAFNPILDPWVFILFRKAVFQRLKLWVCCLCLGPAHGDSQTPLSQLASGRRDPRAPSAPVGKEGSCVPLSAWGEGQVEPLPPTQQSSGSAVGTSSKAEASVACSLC
Description: as §1, §2, §3, §4

[5] = biological target: T4, hEP1 (Homo sapiens, UniProt P34995); test: FLIPR calcium signal, HEK-293(EBNA) cells; type: cell-based
T4 construct: expressed in transfected cells; host or cells: HEK-293(EBNA)
T4 sequence (P34995 1-402): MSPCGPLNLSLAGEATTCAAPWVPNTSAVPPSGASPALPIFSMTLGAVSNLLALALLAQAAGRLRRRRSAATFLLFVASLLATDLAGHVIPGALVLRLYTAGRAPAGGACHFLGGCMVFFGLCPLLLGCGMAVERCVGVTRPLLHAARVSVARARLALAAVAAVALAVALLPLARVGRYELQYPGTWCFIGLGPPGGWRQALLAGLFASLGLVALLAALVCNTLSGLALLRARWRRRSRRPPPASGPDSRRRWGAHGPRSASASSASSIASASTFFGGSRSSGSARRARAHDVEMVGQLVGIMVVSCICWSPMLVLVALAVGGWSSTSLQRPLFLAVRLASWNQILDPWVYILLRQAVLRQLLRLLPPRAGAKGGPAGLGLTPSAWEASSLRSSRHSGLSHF
Description: as §1, §2, §3, §4

[6] = biological target: T5, hTP (Homo sapiens, UniProt P21731); test: FLIPR calcium signal, HEK-293(EBNA) cells; type: cell-based
T5 construct: expressed in transfected cells; host or cells: HEK-293(EBNA)
T5 sequence (P21731 1-343): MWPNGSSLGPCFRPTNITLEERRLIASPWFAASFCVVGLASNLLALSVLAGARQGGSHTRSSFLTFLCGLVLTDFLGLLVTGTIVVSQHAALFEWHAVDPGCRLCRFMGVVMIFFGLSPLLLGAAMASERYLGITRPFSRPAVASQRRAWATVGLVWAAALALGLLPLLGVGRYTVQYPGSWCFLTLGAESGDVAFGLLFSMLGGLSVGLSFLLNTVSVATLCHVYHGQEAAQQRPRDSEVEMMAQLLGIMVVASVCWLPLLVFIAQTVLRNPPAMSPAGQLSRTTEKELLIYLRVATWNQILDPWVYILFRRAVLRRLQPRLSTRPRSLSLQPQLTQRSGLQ
Description: as §1, §2, §3, §4

[7] = biological target: T6, hFP (Homo sapiens, UniProt P43088); test: FLIPR calcium signal, HEK-293(EBNA) cells; type: cell-based
T6 construct: expressed in transfected cells; host or cells: HEK-293(EBNA)
T6 sequence (P43088 whole entry): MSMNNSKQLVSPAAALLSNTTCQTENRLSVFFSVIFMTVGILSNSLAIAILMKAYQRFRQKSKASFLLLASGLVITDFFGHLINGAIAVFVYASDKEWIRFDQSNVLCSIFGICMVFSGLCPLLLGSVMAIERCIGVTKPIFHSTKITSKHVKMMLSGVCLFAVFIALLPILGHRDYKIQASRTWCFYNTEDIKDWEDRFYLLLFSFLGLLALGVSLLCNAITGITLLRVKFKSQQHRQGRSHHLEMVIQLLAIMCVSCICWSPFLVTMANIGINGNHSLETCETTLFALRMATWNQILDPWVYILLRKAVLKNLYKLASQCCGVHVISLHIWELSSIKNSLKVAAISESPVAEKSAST
Description: as §1, §2, §3, §4

[8] = biological target: T7, hEP2/Gqs5 (Homo sapiens, UniProt P43116); test: FLIPR calcium signal, HEK-293(EBNA) cells; type: cell-based; settings: value outside the parentheses; read-out: Ca2+ Signal-EC50 (nM) EP2
T7 construct: expressed in transfected cells; host or cells: HEK-293(EBNA)
T7 sequence (P43116 whole entry): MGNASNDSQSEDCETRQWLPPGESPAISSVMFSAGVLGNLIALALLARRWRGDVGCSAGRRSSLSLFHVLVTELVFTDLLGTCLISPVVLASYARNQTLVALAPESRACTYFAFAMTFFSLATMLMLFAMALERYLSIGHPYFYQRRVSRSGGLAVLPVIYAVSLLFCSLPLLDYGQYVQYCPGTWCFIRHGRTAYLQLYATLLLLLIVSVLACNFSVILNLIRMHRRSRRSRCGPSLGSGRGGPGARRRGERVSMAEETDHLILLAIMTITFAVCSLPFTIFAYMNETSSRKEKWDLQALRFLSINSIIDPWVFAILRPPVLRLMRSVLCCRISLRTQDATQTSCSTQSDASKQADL
Description: as §1, §2, §3, §4

[9] = biological target: T8, hEP3A/Gqi5 (Homo sapiens, UniProt P43115); test: FLIPR calcium signal, HEK-293(EBNA) cells; type: cell-based; settings: read-out: Ca2+ Signal-EC50 (nM) EP3
T8 construct: expressed in transfected cells; host or cells: HEK-293(EBNA)
T8 sequence (P43115 1-390): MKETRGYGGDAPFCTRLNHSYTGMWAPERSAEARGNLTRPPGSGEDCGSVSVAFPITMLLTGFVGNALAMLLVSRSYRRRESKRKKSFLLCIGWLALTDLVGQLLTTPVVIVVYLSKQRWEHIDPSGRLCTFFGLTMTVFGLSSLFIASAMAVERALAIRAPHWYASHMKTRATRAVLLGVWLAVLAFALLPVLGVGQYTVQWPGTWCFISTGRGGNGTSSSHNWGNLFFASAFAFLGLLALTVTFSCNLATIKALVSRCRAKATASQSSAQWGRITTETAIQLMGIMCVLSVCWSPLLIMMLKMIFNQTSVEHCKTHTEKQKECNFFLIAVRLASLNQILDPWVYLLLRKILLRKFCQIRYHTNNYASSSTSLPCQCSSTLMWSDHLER
Description: as §1, §2, §3, §4

[10] = biological target: T9, hEP4/Gqs5 (Homo sapiens, UniProt P35408); test: FLIPR calcium signal, HEK-293(EBNA) cells; type: cell-based; settings: read-out: Ca2+ Signal-EC50 (nM) EP4
T9 construct: expressed in transfected cells; host or cells: HEK-293(EBNA)
T9 sequence (P35408 whole entry): as the sequence (P35408 whole entry) above
Description: as §1, §2, §3, §4

EP2, sequence (P43116 whole entry): as the sequence (P43116 whole entry) above

With CCCCCC(O)c1ccc([C@@H]2[C@@H](C/C=C\CCCC(=O)O)[C@H](Cl)C[C@H]2Cl)cc1 (some centres unmarked) [Entry 2] the Ki [1] was 25 nM, the Ki [2] was 1400 nM and the “Ca2+ Signal-EC50 (nM) DP” value [3] was “notactive”. The “Ca2+ Signal-EC50 (nM) IP” value [4] was “notactive”, the “Ca2+ Signal-EC50 (nM) EP1” value [5] was “notactive” and the “Ca2+ Signal-EC50 (nM) TP” value [6] was “notactive”. The “Ca2+ Signal-EC50 (nM) FP” value [7] was “notactive”, the EC50 [8] was 15 nM and the EC50 [9] was 25 nM.

Work on CCCCCC(O)c1ccc([C@@H]2[C@@H](C/C=C\CCCC(=O)O)[C@H](Cl)C[C@@H]2Cl)cc1 (some centres unmarked) [compound 1] yielded a Ki [1] of 504 nM, a Ki [2] of 2360 nM and an EC50 [10] greater than 10000 nM. The EC50 [8] was 427 nM and the EC50 [9] was 449 nM.

From patent US7491844B2, “Therapeutic cyclopentane derivatives” (Allergan, Inc., priority 2006, dated 2009)
